Like-named read-outs stand apart in the source and are kept apart here.
Assays:
[1] = test system: Cdh5 - exon2 morpholino-induced hemorrhage in zebrafish; experiment: Cdh5 (VE-cadherin) morpholino-induced hemorrhage in zebrafish, rescue by drugs; format: in vivo, zebrafish (Danio rerio); conditions: result in words, no EC50
Experimental: Danieau buffer (58 mM NaCl, 0.7 mM KCl, 0.4 mM MgSO4, 0.6 mM Ca(NO3)2, 5.0 mM HEPES, pH 7.6) was used to dilute the MO solutions to 0.2 mM final concentration. Individual wells were placed on a 1.0% agarose plate, in which the embryos were positioned. Afterwards, the MO solution was injected through the cell yolk into embryos of 1 to 4 cell-stage. The injected quantities varied from 0.5 to 15 ng.
Panels A & B: Stable EC junctions are maintained by a Cdc42-dependent and VE-cadherin-mediated cell-cell adhesion. VE cadherins are found on the surfaces of EC cell-cell junctions. VE-cadherins are associated with β- and α-catenins at their cytoplasmic domains, which connect them to the actin-based cytoskeleton (blue circles). Cdc42 belongs to the Rho-family of small guanosine triphosphatases (GTPases), which are the main regulators of VE-cadherin-based cell-cell adhesion. The functions of hmgcrb, βPix, and pak2a in regulating junctional stability in zebrafish are shown. HNGCR mediated GGPP biosynthesis regulates Cdc42 prenylation. βPix is a GEF that increases CDC42 affinity for GTP. Pak2 is an effector of Cdc42, which regulates actin filament organization.
Suppression of VE-cadherin induces hemorrhage.

[2] = test system: zebrafish embryos treated with LPS; experiment: LPS-induced ICH/BMH and mortality in zebrafish embryos; format: in vivo; conditions: 1 μmol/L in fish water; LPS 200 mg/mL; preliminary data
Experimental: Experiment 1: LPS-induced ICH/BMH in zebrafish embryos. The lead compounds will be tested in a LPS model of ICH/BMH to determine if rescue of the ICH/BMH phenotype is a general property of these compounds or it is specific to statin-induced ICH/BMH. […] LPS concentration used was 200 mg/mL. […] Experiments are ongoing to define the rescuing effects of artemether on LPS-induced brain hemorrhage. Double transgenic zebrafish (Gata1:DsRed/Flk1:GFP) with green fluorescent vessel and red fluorescent red blood cells are used. Arrow points to hemorrhage.

[3] = test system: LPS-induced brain microbleeds in mice; experiment: LPS-induced microbleeding mouse model; format: in vivo, C57BL/6 mice
Description: An LPS-mediated micro bleeding model was created similar to that described in Lui et al (Liu S, Grigoryan M M, Vasilevko V et al. Comparative analysis of H&E and Prussian blue staining in a mouse model of cerebral microbleeds. J Histochem Cytochem 2014; 62:767-773). 9-10 week old C57BL/6 mice of both sexes were purchased from Charles River, and randomly assigned to control or treatment groups in equal numbers. LPS from Salmonella enterica (Sigma Aldrich, St Louis, Mo.) was reconstituted with PBS to a final concentration of 5 mg/ml. Both control (n=16) and drug treatment (n=16) groups received injections of 5 mg/kg LPS at times 0 and 24 hrs. The drug treatment group, further divided into high dose (n=4) and low dose (n=12), received intraperitoneal injections of artemether (ARM) (25 mg/kg for Low dose and 100 mg/kg for High dose) at time points −72, −48, −24, 0 and 24 hrs of LPS treatment. All mice were sacrificed at 48 hrs after the first LPS injection.
LPS-induced microbleeding model: All mice in the LPS study were deeply anesthetized with ketamine and xylazine and perfused through the left cardiac ventricle with NaCl, 0.9%, followed by 4% paraformaldehyde (PFA) in 1×PBS buffer and 2 mM Gadoteridol contrast agent for 24 hours. Each brain was transferred into a 1×PBS+0.02% sodium azide and 2 mM Gadoteridol contrast agent. Brains were kept in this immersion solution for 14 days before imaging to ensure proper contrast diffusion in the brain for magnetic resonance imaging (MRI) scan. […]
For the integrin ICH model, brains were taken out of the skull, cut at the mid-coronal position and assessed in a binary manner for whether or not there was any evidence of ICH. […]
Brains were scanned using 7T Burker MRI with 16-channel solenoid coils. […] Following the reconstruction of images and applying image distortion correction algorithms, all brains were processed and analyzed for total volume of brain and total volume of hemorrhage. Quantification was done using percentage of bleeding (normalized to each brain size). […] Lastly, quantification was done in a blinded fashion. […]

[4] = test system: brain hemorrhage induced by 1 μM atorvastatin in zebrafish; experiment: Atorvastatin-induced brain hemorrhage (ICH) model in zebrafish, rescue by drugs; conditions: for EC50: Danio rerio
Experimental: Zebrafish were set up the night before the experiment day. In the morning of the experimental day, we put breeders together for mating and fertilization. 6 hours post-fertilization (hpf), statins was added into a 96-well plate holding 100 μl water with 7 to 8 fish eggs in each well, which was optimized through a serial pilot experiments. Statins were dissolved in DMSO and diluted with 0.5% of DMSO water into a working solution. 100 μl water containing 0.5% of DMSO was the medium for all wells in the final assessment.
For screening NIH compound libraries, 5 μM of each of the drugs from the library was added at 24 hpf into wells containing fish eggs treated with 1 μM ATV since 6 hpf. Hemorrhage positive control wells were treated with ATV but not treated with any drugs. Negative controls were not treated with any chemicals (fish with 0.5% of DMSO water). Geranylgeranyl pyrophosphate (GGPP, 4 mg/L) was used as positive rescue control.
Brain hemorrhage was assessed 72 hpf (66 hours after addition of statins) using stereomicroscopy by two observers. Percentage of brain hemorrhage was used as final readout. Compounds showing more than 70% of rescue of the brain hemorrhages in the initial test were re-tested to generate a final list of hits from the library.
All subsequent EC50 assays of positive compounds were performed with protocols established and optimized during the screening.

CO[C@H]1O[C@@H]2O[C@@]3(C)CC[C@H]4[C@H](C)CC[C@@H]([C@H]1C)[C@@]24OO3 [Artemether] was tested, and the “Rescue of hemorrhage induced by Cdh5 - exon2 morpholino” value ([1]; listed as ARM) was “rescue was observed”, the “Rescue of hemorrhage induced by Cdh5 - exon2 morpholino” value ([1]; listed as ARM (Sigma)) was “Rescue effect” and the “Effect on fish survival (LPS-induced mortality)” value [2] was “protective effect”. The “Total number of microbleeds inside the brain (H&E slices)” value ([3]; LPS+ARM vs LPS, n=8, P<0.01) was “significantly reduced”, the “Total surface microbleeds (stereomicroscope count)” value ([3]; LPS+ARM vs LPS, n=8, P<0.05) was “robust reduction” and the “Reduction of bleeding (MRI, total microbleed volume normalized to brain volume)” value ([3]; vs model control group, n=8, P<0.05) was “about ⅔”. For the same compound, the “Hemorrhage in zebrafish treated with 1 μmol/L atorvastatin and drug” value ([4]; 500 nmol/L drug, 3 dpf) was “no hemorrhage was observed”, the “Efficacy on atorvastatin Hemorrhage” value ([4]; ATV model induced by 1 μmol/L atorvastatin, inhibition of hemorrhage) was “+++++ (One + sign represents 20% inhibition on 1 μmol/L ATV or β-Pix MO-induced hemorrhage.)” and the EC50 ([4]; read-out: EC50 (in nmol/L) on atorfvastatin model (μmol/L)) was 64 nmol/L. For the same compound, the EC50 ([4]; read-out: EC50 to rescue brain hemorrhage, Statin Model) was 24.7 nmol/L.
